Data: US12173349B2, “Lung protease nanosensors and uses thereof” (Massachusetts Institute of Technology, priority 2018, dated 2024)
Where no end group is shown, it is not given here. [ ]: non-standard residue; d: D form. FAM = carboxyfluorescein fluorophore label

Key:
PA01 supernatant = experiment: cleavage of FRET-paired substrates by bacterial supernatant; assay type: biochemical, Pseudomonas aeruginosa
Protocol: (§1) The specificity of LAS and ELA for P. aeruginosa cleavage was tested by collecting supernatants from PA01 or Staphylococcus aureus cultures and incubating them with FRET-paired substrates LAS-Q and ELA-Q in 384 well plates. […] To investigate whether the LAS and ELA substrates are also susceptible to cleavage by host proteases, each was incubated with recombinant mouse proteases.
(§2) Supernatant from PA01 and S. aureus were collected and added to substrates in 384 well plates and dequenching of FAM was monitored at 37° C. (Tecan). Fluorescence change at 30 minutes was reported. For recombinant protease assays, enzyme was added to the substrates in enzyme-specific buffer (MMP7 & 9 buffer: 50 mM Tris, 150 mM NaCl, 5 mM CaCl2), […], pH 7.5; Thrombin: PBS; NE: 100 mM HEPES, 500 mM NaCl, 0.05% Tween 20) in a 384 well plate for time-lapse fluorimetry to measure dequenching at 37° C. (Tecan).

[1] = tested on: P. aeruginosa clinical isolate strains; experiment: cleavage of FRET-paired substrates by clinical isolate supernatants; assay type: biochemical, Pseudomonas aeruginosa
Protocol: P. aeruginosa strains isolated from de-identified clinical samples were generously provided by Dr. Deborah Hung, MD, PhD (Massachusetts General Hospital). Cultures of each were grown in LB broth overnight, then were subcultured in fresh LB and each strain grown to OD-matched mid log phase (OD600˜0.5). Supernatants were collected by centrifugation and substrate cleavage was monitored as described above.

thrombin = thrombin (Mus musculus, UniProt P19221); experiment: recombinant host protease cleavage assay; assay type: biochemical
Protocol: as §1, §2

MMP7 = target: T1, MMP7 (Mus musculus, UniProt Q10738); experiment: recombinant host protease cleavage assay; assay type: biochemical
T1 sequence (Q10738 95-264): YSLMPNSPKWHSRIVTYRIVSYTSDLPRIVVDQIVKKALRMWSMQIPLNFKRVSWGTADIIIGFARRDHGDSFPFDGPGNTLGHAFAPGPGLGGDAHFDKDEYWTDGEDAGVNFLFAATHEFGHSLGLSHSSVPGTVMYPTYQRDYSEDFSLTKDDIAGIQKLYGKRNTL
Protocol: as §1, §2

MMP13 = MMP13 (Mus musculus, UniProt P33435); experiment: recombinant host protease cleavage assay; assay type: biochemical
Protocol: as §1, §2

neutrophil elastase = target: T2, neutrophil elastase (Mus musculus, UniProt Q3UP87); experiment: recombinant host protease cleavage assay; assay type: biochemical
T2 sequence (Q3UP87 27-265): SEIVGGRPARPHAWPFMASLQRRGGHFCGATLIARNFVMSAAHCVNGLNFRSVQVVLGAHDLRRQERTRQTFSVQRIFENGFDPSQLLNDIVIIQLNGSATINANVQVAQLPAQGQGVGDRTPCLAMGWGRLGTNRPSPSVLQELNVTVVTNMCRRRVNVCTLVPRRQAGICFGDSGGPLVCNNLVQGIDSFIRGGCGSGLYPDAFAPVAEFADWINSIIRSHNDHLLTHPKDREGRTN
Protocol: as §1, §2

[2] = tested on: Staphylococcus aureus supernatant; experiment: cleavage of FRET-paired substrates by bacterial supernatant; assay type: biochemical; settings: S. aureus culture supernatant, fluorescence change at 30 minutes
Protocol: as §1, §2

[3] = tested on: Eml4-Alk (EA) lung adenocarcinoma model; experiment: urinary ABN readout and classification in Eml4-Alk model; assay type: in vivo; settings: EA mice
Description: To assess the generalizability of ABNs to other genetic subtypes by leveraging the Eml4-Alk (EA) model Maddalo et al., Nature 516, 423-428 (2014), an autochthonous model in which intrapulmonary administration of adenovirus encoding two short guide RNAs (sgRNAs) and Cas9 results in translocation and fusion of the Eml4 and Alk genes, yielding lung adenocarcinoma that histologically resembles human disease.
Tumors were initiated in male C57BL/6 mice between 6 and 10 weeks old as described previously (50), by intratracheal administration of 50 μL adenovirus expressing the Ad-EA vector (Viraquest) (1.5×10^8 PFU in Opti-MEM with 10 mM CaCl2)).
It was determined whether the lung nanosensors could be prospectively applied to diagnose disease. […] The classifier was also evaluated on a test cohort that combined both LUAD models and again found strong classification at 7.5 weeks and 10.5 weeks (AUC7.5 wk s=0.97; AUC10.5 wk s=0.93) (FIG. 17C).
For all urine experiments, PAR values were normalized to ABN stock concentrations and then mean normalized across all reporters in a given urine sample prior to further statistical analysis. […] Ten independent train-test trials were run for each classification problem, and classification performance was evaluated with receiver operating characteristic (ROC) statistics calculated in MATLAB. […]

[4] = tested on: 15 proteases in the LUAD protease panel; experiment: in vitro recombinant protease screen of FRET-paired substrates; assay type: biochemical; settings: fluorescence fold change at 45 minutes; 1 μM substrate, 12.5 nM recombinant enzyme; MP metallo-, SP serine, AP aspartic protease
Description: Hundreds of peptide sequences have been previously designed and validated as protease substrates, leveraging known catalytic specificities of different protease families, published datasets and substrate sequences in databases like cutDB and MEROPS (Igarashi et al., Nucleic Acids Res 35, D546-549, 2007; Rawlings et al., Nucleic Acids Res 46, D624-D632, 2018). Fourteen of these substrates were nominated in an effort to cover the specificity profiles of metallo-, serine and aspartic endoproteases, all of which were included in the LUAD protease panel, and the catalytic activity of each protease-substrate pair was characterized. Quenched probes that incorporated the 14 peptide substrates were synthesized such that they fluoresce upon proteolytic cleavage to enable real-time monitoring of protease activity in vitro (FIG. 3A and Table 2). Each probe was incubated with each protease in the panel and fluorescence was monitored over 45 minutes. Shown are sample kinetic plots monitoring dequenching of the 14 FRET-paired probes when incubated with (above) and without (below) recombinant matrix metalloproteinase 3 (MMP3) (FIG. 3B). […] See also FIG. 19.
Fluorogenic protease substrates were synthesized by CPC Scientific. Recombinant proteases were purchased from Enzo Life Sciences, R&D Systems and Haematologic Technologies. For recombinant protease assays, fluorogenic substrates PPQ1-14 (1 μM final concentration) were incubated in 30 μL final volume in appropriate enzyme buffer, according to manufacturer specifications, with 12.5 nM recombinant enzyme at 37° C. (FIG. 3). Proteolytic cleavage of substrates was quantified by increases in fluorescence over time by fluorimeter (Tecan Infinite M200 Pro). Enzyme cleavage rates were quantified as relative fluorescence increase over time normalized to fluorescence before addition of protease. Hierarchical clustering was performed in GENE-E, using fluorescence fold changes at 45 minutes.

[5] = tested on: Kras and p53 mutant lung adenocarcinoma (KP mice); experiment: urinary ABN readout and random forest classification in KP lung adenocarcinoma model; assay type: in vivo; settings: KP mice
Protocol: To characterize ABN performance in vivo, 14 protease-sensitive ABNs were administered to KP mice and healthy, age and sex-matched controls at 5, 7.5 and 10.5 weeks after tumor initiation. Mouse bladders were voided one hour after intrapulmonary delivery and all fresh urine produced during the subsequent hour (from 60-120 minutes after administration) was pooled and collected. LC-MS/MS was performed and peak area ratios (defined as peak area of urinary reporter divided by peak area of spiked-in internal standard) of protease-sensitive reporters were mean-normalized within each sample to reduce mouse-to-mouse variation.
A random forest classifier was then sought to be built to enable prospective diagnosis of lung cancer in KP mice. Random forest is a high-performance classifier, applicable to a wide variety of classification tasks, that generates a collection of decision trees (a “forest”) that are sampled to produce classification results (Breiman, Machine Learning 45, 5-32, 2001). A random forest classifier was trained using 50% of control mice at 5 weeks, 7.5 weeks and 10.5 weeks, as well as 50% of KP mice at 7.5 weeks (FIG. 6A). The classifier assigned a probability that each mouse belonged to either the KP cohort or the healthy control cohort (FIG. 6B, “Training” panel), achieving perfect separation of control and KP mice. The classifier was then sought to be tested on an independent validation cohort consisting of classifier-naive KP mice at 5 weeks, 7.5 weeks and 10.5 weeks post-induction, as well as the remaining control mice from each time point.
Male B6/SV129 Kras^LSL-G12D/+; Trp53^fl/fl (KP) mice between 18 and 30 weeks old were used for lung adenocarcinoma experiments. Tumors were initiated, as described previously (DuPage et al., Nat Protoc 4, 1064-1072 (2009)), by the intratracheal administration of 50 μL of adenovirus-SPC-Cre (2.5×10^8 PFU in Opti-MEM with 10 mM CaCl2)) under isoflurane anesthesia. […] Tumor growth was monitored by micro computed tomography (microCT) imaging (General Electric) and was scored by a blinded radiation oncologist using MicroView (Parallax Innovations) (Table 4). Tumor volumes were calculated by using the ROI sphere/elliptical tool.
ABN constructs (GluFib-Substrate-PEG-840 kDa) for urinary experiments were synthesized by CPC Scientific (Sunnyvale, CA). ABNs were dosed (50 μL total volume, 20 μM concentration per ABN) by intratracheal intubation, as described above. Bladders were voided 60 minutes after ABN administration and all urine produced 60-120 min after ABN administration was collected using custom tubes in which the animals rest upon 96-well plates that capture urine. Urine was pooled and frozen at −80° C. until analysis by LC-MS/MS.
Liquid chromatography/tandem mass spectrometry was performed by Syneos Health (Princeton, NJ) using a Sciex 6500 triple quadrupole instrument. Briefly, urine samples were treated with UV irradiation to photocleave the ANP linker and liberate the Glu-Fib reporter from residual peptide fragments. Samples were extracted by solid-phase extraction and analyzed by multiple reaction monitoring by LC-MS/MS to quantify concentration of each Glu-Fib mass variant. Analyte quantities were normalized to a spiked-in internal standard and concentrations were calculated from a standard curve using peak area ratio (PAR) to the internal standard. Mean normalization was performed on PAR values to account for mouse-to-mouse differences in ABN inhalation efficiency and urine concentration.
Principal component analysis (PCA) was performed on mean normalized PAR values in the R statistical environment (Team, R.C. R, R Foundation for Statistical Computing, Vienna, Austria, 2017) using the prcomp function. Binary classification was performed using the Caret package (Kuhn, M. caret: Classification and Regression Training. (2017)) in the R statistical environment). […]

Row | Substance | cleavage by supernatant (fluorescence signal) (PA01 supernatant; PA01 culture supernatant, fluorescence change at 30 minutes) | cleavage potency by Michaelis-Menten type analysis (PA01 supernatant; range of substrate concentrations, compared with LAS substrate) | extent of cleavage compared with LAS-Q ([1]; bacterial-derived proteases) | strains whose supernatant gave significant cleavage ([1]; five clinical isolate strains) | cleavage by recombinant protease (thrombin) | cleavage by recombinant protease (MMP7) | cleavage by recombinant protease (MMP13) | cleavage by recombinant protease (neutrophil elastase) | cleavage by supernatant (fluorescence signal) [2] | urinary reporter enrichment [3] | protease class(es) cleaving the substrate in vitro [4] | urinary reporter enrichment [5]
1 | ELA-Q: FRET-paired (FAM fluorophore, Dabcyl quencher) substrate for elastases including neutrophil elastase; includes SEQ ID NO: 47 (GAAFAGK(FAM); also: Dabcyl quencher, site not given here) | Significant increases | more potently cleaved | more extensively cleaved | 3 of the 5 strains | resist cleavage | resist cleavage | resist cleavage | cleaved | Significant increases |  |  | 
2 | PP01: ABN: reporter e(+2G)(+6V)ndneeGFFsAr, ANP, substrate PQGIWGQ, nanocarrier PEG8-40 kDa (chain 1 [dE]G[+6V][dN][dD][dN][dE][dE]GFF[dS]A[dR]; not fully specified (some residues); printed as PP01: ABN: reporter e(+2G)(+6V)ndneeGFFsAr, ANP, substrate PQGIWGQ, nanocarrier PEG8-40 kDa; also: ANP photolabile linker, PEG8-40 kDa nanocarrier, linkage of reporter, ANP, substrate and carrier not given here) |  |  |  |  |  |  |  |  |  | consistent enrichment | metalloprotease-specific | not in KP mice
